Counter-ions that a name gives are not always drawn.
Columns and labels:
mexY (EC) strain = experiment: Efflux ability inhibition effect on drug efflux pump MexY (Test Examples 1 and 3): proliferation (OD595) of mexY (EC) strain with EM or LVFX at 1/4 MIC, EC75; format: cell-based, Escherichia coli; conditions: Table 51, Test Example 1, 16 to 20 hours culture, OD595; for EC75, mexY (EC) strain, EM: combined with EM at 1/4 MIC; for EC75, mexY (EC) strain, LVFX: combined with LVFX at 1/4 MIC
Outline: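 E. coli ΔacrB/ΔtolC strains carrying P. aeruginosa MexAB-OprM or MexXY-OprM were grown in LB for 16 to 20 hours with EM or LVFX at ¼ MIC plus compound (0 to 800 μM). Growth was read as OD595. EC75 is the lowest compound concentration giving ≥75% growth inhibition versus antibiotic alone.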

mexB (EC) strain = experiment: Efflux ability inhibition effect on drug efflux pump MexB (Test Examples 1 and 3): proliferation (OD595) of mexB (EC) strain with EM or LVFX at 1/4 MIC, EC75; format: cell-based, Escherichia coli; conditions: for EC75, mexB (EC) strain, EM: combined with EM at 1/4 MIC; for EC75, mexB (EC) strain, LVFX: combined with LVFX at 1/4 MIC
Experimental: The efflux ability inhibition effect of the test compound on the drug efflux pump was evaluated using the bacterial proliferative ability in the presence of EM or LVFX as an index.
EM is a macrolide antibacterial agent and is a drug that is discharged outside the bacteria by MexB and MexY LVFX is a quinolone antibacterial agent and is a drug that is discharged outside the bacteria by MexB and MexY In a case where the test compound has an efflux ability inhibitory ability against the drug efflux pump, the proliferation of bacteria is suppressed by the combined use of EM or LVFX and the test compound, as compared with the case where EM or LVFX is used alone.
A mutant strain (hereinafter, referred to as an “mexB (EC) strain”) obtained by transferring the genes of the main multidrug efflux system MexAB-OprM of Pseudomonas aeruginosa described in Nature, 2013, Vol. 500, pp. 102 to 106 as a plasmid into Escherichia coli strains in which the acrB and tolC genes of the multidrug efflux system AcrAB-TolC were deleted as described in Journal of Infection and Chemotherapy 2008, Vol. 14, pp. 23 to 29, and a gene transfer strain (hereinafter, referred to as an “mexY (EC) strain”) of another main multidrug efflux system MexXY-OprM of Pseudomonas aeruginosa were used for the evaluation of test compounds.
In the mexB (EC) strain, an expression level of MexB of the drug efflux pump is accelerated, and in the mexY (EC) strain, an expression level of MexY of the drug efflux pump is accelerated.
For culturing each Escherichia coli strain, a 96-well plate (amount of culture medium per well: 100 μL) was used and Luria-Bertani broth (LB) culture medium was used. The inoculation amount of the bacteria was set to 10^4 to 5 CFU/well.
The mexB (EC) strain and the mexY (EC) strain were cultured for 16 to 20 hours in a culture medium to which EM or LVFX and test compounds at various concentrations (0 to 800 μM) were added, and the proliferation of the bacterial strains was evaluated by optical turbidity at 595 nm (OD595). The concentration of the antibacterial agents (EM and LVFX) in the culture medium were each set to ¼ of the minimum inhibitory concentration (MIC) (hereinafter, referred to as ¼ MIC) of the single antibacterial agent.
The proliferation of bacteria in a case where the antibacterial agent was added at the concentration of ¼ MIC in a case where the test compound was not added was measured, and compared with the proliferation of bacteria in a case where the test compound was contained, and the lowest concentration of the test compound at which the proliferation was inhibited by 75% or more was defined as the drug efflux pump inhibitory ability of the test compound as 75% inhibitory effect concentration (EC75).
The drug efflux pump inhibitory ability of each test compound in a case of being used in combination with the antibacterial agent against the mexB (EC) strain and the mexY (EC) strain was evaluated as follows according to the value of EC75. • S: EC75≤[…] • A: 12.5 μM<EC75≤25 μM • B: 25 μM<EC75≤100 μM • C: […]
In the same manner as in Test Example 1, the efflux ability inhibition effect of the test compound on the drug efflux pump was evaluated using the bacterial proliferation ability in the presence of EM or LVFX as an index.

S-3769 strain = experiment: Combinational effect with antibacterial agent against Pseudomonas aeruginosa (Test Examples 2 and 4): S-3769 strain with AMK or GM at 1/4 MIC, EC99; format: cell-based; conditions: S-3769 strain, Test Example 4; for EC99, combinational effect with AMK, S-3769 strain: combined with AMK at 1/4 MIC; for EC99, combinational effect with GM, S-3769 strain: combined with GM at 1/4 MIC
Outline: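 P. aeruginosa S-3769 (clinical isolate, MexY overexpressed) grown 16–20 h in CAMHB, 10^4 to 5 CFU/well, with AMK or GM at ¼ MIC plus test compound 0–800 μM. Growth read as OD595; EC99 is the lowest compound concentration giving ≥99% growth inhibition.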

mexB (PA) strain = experiment: Combinational effect with antibacterial agent against Pseudomonas aeruginosa (Test Examples 2 and 4): mexB (PA) strain with LVFX, TC or AZT at 1/4 MIC, EC99; format: cell-based; conditions: mexB (PA) strain, Test Example 4; for EC99, combinational effect with AZT, mexB (PA): combined with AZT at 1/4 MIC; for EC99, combinational effect with LVFX, mexB (PA): combined with LVFX at 1/4 MIC; for EC99, combinational effect with TC, mexB (PA): combined with TC at 1/4 MIC
Outline: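 P. aeruginosa mexB (PA) strain, lacking MexCD-OprJ, MexEF-OprN and MexXY and overexpressing MexAB-OprM, grown 16–20 h in CAMHB (10^4–5 CFU/well) with LVFX, TC or AZT at ¼ MIC plus test compound at 0–800 μM. Growth read as OD595; EC99 is the lowest compound concentration giving ≥99% growth inhibition.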

[1] = Table 51, Test Example 1, 16 to 20 hours culture, OD595
[2] = Table 53, Test Example 3, same manner as Test Example 1

Row | Compound | EC75, mexY (EC) strain, EM (mexY (EC) strain) | EC75, mexY (EC) strain, LVFX (mexY (EC) strain) | EC75, mexB (EC) strain, EM (mexB (EC) strain; [1]) | EC75, mexB (EC) strain, LVFX (mexB (EC) strain; [1]) | EC99, combinational effect with AMK, S-3769 strain (S-3769 strain) | EC99, combinational effect with GM, S-3769 strain (S-3769 strain) | EC99, combinational effect with AZT, mexB (PA) (mexB (PA) strain) | EC99, combinational effect with LVFX, mexB (PA) (mexB (PA) strain) | EC99, combinational effect with TC, mexB (PA) (mexB (PA) strain) | EC75, mexB (EC) strain, EM (mexB (EC) strain; [2]) | EC75, mexB (EC) strain, LVFX (mexB (EC) strain; [2])
1 | COc1ccccc1CN1CCN(C(=O)[C@@H](N)C2CCN(CCc3ccccc3)CC2)CC1 [Example 112, Hydrochloride of (S)-2-amino-1-(4-(2-methoxybenzyl)piperazin-1-yl)-2-(1-phenethylpiperidin-4-yl)ethan-1-one] | A (12.5 μM<EC75≤25 μM) | A (12.5 μM<EC75≤25 μM) | B (25 μM<EC75≤100 μM) | B (25 μM<EC75≤100 μM) | – | – | – | – | – | – | –
2 | CCOc1cccc(/C=C/C#N)c1CN1CCN(C(=O)[C@H](N)C2CCN(CCc3ccccc3)CC2)CC1 [Example 34] | A (12.5 μM<EC75≤25 μM) | A (12.5 μM<EC75≤25 μM) | B (25 μM<EC75≤100 μM) | B (25 μM<EC75≤100 μM) | – | – | – | – | – | – | –
3 | O=C(O)c1ccccc1CN1CCN(C(=O)CN2CCN(CCc3ccccc3)CC2)CC1 [Example 256, sodium salt of 2-((4-(2-(4-phenethylpiperazin-1-yl)acetyl)piperazin-1-yl)methyl)benzenecarboxylic acid] | B (25 μM<EC75≤100 μM) | – | B (25 μM<EC75≤100 μM) | – | – | – | – | – | – | – | –
4 | CCOc1cccc(F)c1CN1CCN(C(=O)[C@H](N)C2CCN(CCc3cc(Cl)ccc3-c3cn(C)nc3C)CC2)CC1 [Example 500, Hydrobromide of (R)-2-amino-2-(1-(5-chloro-2-(1,3-dimethyl-1H-pyrazol-4-yl)phenethyl)piperidin-4-yl)-1-(4-(2-ethoxy-6-fluorobenzyl)piperazin-1-yl)ethan-1-one] | – | – | – | – | A (12.5 μM<EC99≤25 μM) | A (12.5 μM<EC99≤25 μM) | C (100 μM<EC99) | C (100 μM<EC99) | C (100 μM<EC99) | A (12.5 μM<EC75≤25 μM) | –
5 | N[C@@H](C(=O)N1CCN(Cc2ncc3ccccn23)CC1)C1CCN(CCc2cc(Cl)ccc2-c2ccccc2)CC1 [Example 518, Hydrobromide of (R)-2-amino-2-(1-(2-(4-chloro-[1,1-biphenyl]-2-yl)ethyl)piperidin-4-yl)-1-(4-(imidazo[1,5-a]pyridin-3-ylmethyl)piperazin-1-yl)ethan-1-one] | – | – | – | – | B (25 μM<EC99≤100 μM) | B (25 μM<EC99≤100 μM) | C (100 μM<EC99) | C (100 μM<EC99) | C (100 μM<EC99) | – | A (12.5 μM<EC75≤25 μM)
6 | Cl.N[C@@H](C(=O)N1CCN(Cc2c(O)cccc2Cl)CC1)C1CCN(CCc2cc(Cl)ccc2-c2ccccc2)CC1 [Example 574, Hydrochloride of (R)-2-amino-1-(4-(2-chloro-6-hydroxybenzyl)piperazin-1-yl)-2-(1-(2-(4-chloro-[1,1-biphenyl]-2-yl)ethyl)piperidin-4-yl) ethan-1-one] | – | – | – | – | A (12.5 μM<EC99≤25 μM) | B (25 μM<EC99≤100 μM) | A (12.5 μM<EC99≤25 μM) | A (12.5 μM<EC99≤25 μM) | A (12.5 μM<EC99≤25 μM) | – | S (EC75≤12.5 M)
7 | CCOc1cccc(F)c1CN1CCN(C(=O)[C@H](N)C2CCN(CCc3cc(-c4ccccc4)ccc3Cl)CC2)CC1 [Example 566, Hydrobromide of (R)-2-amino-2-(1-(2-(4-chloro-[1,1-biphenyl]-3-yl)ethyl)piperidin-4-yl)-1-(4-(2-ethoxy-6-fluorobenzyl)piperazin-1-yl)ethan-1-one] | – | – | – | – | S (EC99≤12.5 μM) | S (EC99≤12.5 μM) | B (25 μM<EC99≤100 μM) | B (25 μM<EC99≤100 μM) | B (25 μM<EC99≤100 μM) | A (12.5 μM<EC75≤25 μM) | –
